We go through one molecule from patent publication US9649305B2, “PFKFB3 inhibitor and methods of use as an anti-cancer therapeutic” (ADVANCED CANCER THERAPEUTICS, LLC, priority 2012, dated 2017).

Structures are written as SMILES.

Data set [1] is described as follows: Maximum tolerated dose study. The settings on record: C57/B16, mouse, in vivo; 3 days on/3 days off schedule; read-out: MTD. It is filed as in vivo. The protocol:
Several maximum tolerated dose studies and toxicology studies were performed and the results indicated PFK-158 is safer than PFK-015. Studies were performed in C57/B16 mice and SD rats.

The target of data set [2] is T1, PFKFB3 (Homo sapiens, UniProt Q16875). The data set is described as follows: Enzymatic activity of recombinant PFKFB3, ADP-Glo assay. The note with it: Table 1; read-out: IC50, Enzymatic activity of PFKFB3, ADP Glo Assay. It counts as biochemical. The protocol:
The inducible bifunctional 6-Phosphofructo-2-kinase/fructose2,6-biphosphatase enzyme (PFKFB3) was expressed and purified in order to determine if PFK-158 inhibits enzymatic activity. PFKFB3 was prepared by expression in E. coli and purified by GST column and column chromatography. […] The recombinant protein was pure and active as determined by the results of a commercially available kinase activity assay (ADP-Glo™, Promega, Madison, Wis.).

Data set [3] in a line: IV pharmacokinetics in mice. It counts as in vivo, Balbc mice. The note with it: mouse, plasma, 5 mg/kg, Table 2, Balbc mice, IV dosing. The protocol:
The pharmacokinetic (PK) parameters for PFK-158 were determined in mice following IV (intravenous) administration in mice and rats. A typical study design includes six animals (male or female) 7 to 8 weeks old.
Mouse pharmacokinetic properties using a dose of 5 mg/kg were determined after IV administration using a 10% DMSO, 10% PEG-200, 10% Solutol:ethanol (1:1) and 70% D5W solution or any other pharmaceutically acceptable parenteral formulation. Blood samples were collected at different intervals. Plasma samples were extracted and analyzed using an LC-MS/MS method. Similar protocols were used for the rat PK study (Sprague Dawley rats; 30 mg/kg), although the formulation for rat PK studies differed (30% Captisol, pH 3.0 solution). Time vs. plasma concentration plots were prepared as shown in FIGS. 4 (BalbC mice) and 5 (SD rats), respectively. Pharmacokinetic parameters were calculated and are provided below in Table 7.

Data set [4] has as its system lung cancer model, pancreatic cancer model, colon cancer model. Briefly: Tumor growth inhibition in mouse cancer models. The settings on record: mouse cancer models, during treatment. As for the experimental part:
Studies determining efficacy of PFK-158 at inhibiting tumor growth in mouse cancer models were performed. These studies were carried out with PFK-158 alone and in combination with compounds currently used in the treatment of cancer patients. Studies were performed in a lung cancer model, a pancreatic cancer model, and in a colon cancer model.
Efficacy of PFK-158 was studied in vivo in tumor models. Several tumor models were used in these studies (the Lewis lung carcinoma, or LLC model, the CT-26 colon carcinoma tumor model, or the BXPC3 pancreatic cancer model). The experimental protocol for the LLC study is described below. Subsequent to subcutaneous inoculation of tumor cells, tumors started to develop and once tumors reached the desired volume of 100-125 mm^3 on average, treatment was initiated. Tumor volume was monitored in both groups and the average for both the control and treatment groups was measured three times a week, as well as body weights.
Briefly, normal female C57BL/6 mice at 7-8 weeks of age were used for the study. Mice were housed in microisolator housing, with food and water provided as libitum, and quarantined for 4 days prior to the initiation of the study. LLC cells were maintained in a monolayer culture in DMEM medium supplemented with 10% heat inactivated fetal calf serum, 100 U/ml penicillin and 100 μg/ml streptomycin, and L-glutamine (2 mM) at 37° C. in an atmosphere of 5% CO2 in air. The tumor cells were routinely sub-cultured twice a week. The cells growing in an exponential phase were harvested and counted for tumor inoculation. Each mouse was inoculated subcutaneously at the right flank with the LLC tumor cells (3×10^5) in 0.1 ml of PBS for tumor development. When athymic nude mice were used, as for the BxPC3 model, then the strain of mice is slightly different. Furthermore, the use of Matrigel supports tumor development, meaning that cells are suspended in 100 μl of a mixture of medium/Matrigel (1:1) and are then subcutaneously implanted in the right flank region. Animals were monitored for tumor growth daily after cell implantation. When tumor volumes reached approximately 100-125 mm^3, mice were randomized into groups of 8 mice each using only mice having tumor volumes closest to the mean value. Tumor volumes were measured using the formula V=L×W×H×π/6, where L and W represent the longer and shorter diameters of the tumor and H represents the height of the tumor. Treatment began following randomization. PFK-158 was administered IP at a dose of 60 mg/kg on days 1, 3, 5, 7, 9, 11, and 13.
Similar protocols were used for the other studies using different models; differences included the use of Balbc/nude mice; administering larger number of cancer cells; and use of Matrigel.

The nature of data set [5]: In vitro stability in human liver microsomes. It counts as in vitro ADME.
Data set [6] in a line: Repeat-dose toxicology study in SD rats. It is filed as in vivo. As for the experimental part: Toxicology studies were performed in SD rats comparing PFK-158 and PFK-015 using a repeat dosing schedule. The studies were performed at dose levels ranging from 5 to 30 mg/kg and animals were monitored for weight loss, behavior, clinical signs, and clinical chemistries. At the end of the study, gross pathology and histopathology were performed.

The test system of data set [7] is Jurkat cell line (leukemia cell line). Briefly: Toxicity / cell growth of Jurkat cell line. It counts as cell-based. The settings on record: Homo sapiens, Jurkat; Table 1; read-out: IC50, toxicity of Jurkat cell line (leukemia cell line). The protocol: The ability of PFK-158 to kill or inhibit the proliferation of cancer cells was measured using either the MTT assay, the alamarBlue® assay (Invitrogen, Grand Island, N.Y.), or the CellTiter Glo™ assay (Promega, Madison, Wis.) using 48 or 72 hours exposure.
Cells of the desired tumor cell line were plated at 2×10^5 cells/ml in 96 well plates. Twice the indicated concentrations of the compounds of the invention were added to cells the following day in an equal volume of media. 72 hours later, cells were lysed and subjected to ATP determination using the CellTiter-Glo™ Luminescent Cell Viability Assay kit. Experiments were performed in triplicate. When using the MTT assay or the alamarBlue® assay, the experimental conditions are essentially similar; at the end of the incubation period, 20 microliters of the MTT solution is added per well and the samples are incubated for an additional four hours, rinsed, and absorbance at 570 nm was measured. Results for the inhibition of cell proliferation are reported as the IC50 (the concentration resulting in 50% inhibition of proliferation of the cell population) and are listed in Table 5 below. Cell lines include lung, colon, prostate, breast, ovarian, and pancreatic cancer lines.

For another data set, the system named is Jurkat cells. The data set is described as follows: Inhibition of 14C-2-deoxyglucose uptake. It counts as cell-based. The settings on record: Homo sapiens; Table 1; Jurkat cells; read-out: IC50, Inhibition of 2 deoxyglucose uptake. As for the experimental part: Inhibition of PFKFB3 results in inhibiting glycolysis. Several feedback or feedforward activation and inhibition mechanisms exist so that, by a feedback mechanism, inhibiting the activity of PFKFB3 might inhibit glucose uptake by cells. An assay was developed to determine if there was inhibition of glucose uptake following exposure PFK-158. Briefly, Jurkat cells were plated at 10^5 cells/mL in RPMI 1640 supplemented with 10% fetal bovine serum and 50 μg/mL gentamicin sulfate. Cells were immediately treated with vehicle or 0.5 μmol/L of PFK-158 for 3 hours and subsequently placed in glucose-free RPMI 1640 for 30 min. ^14C-2-deoxyglucose (0.25 μCi/mL; Perkin Elmer) was added for an additional 60 min and cells were then washed three times with ice-cold RPMI 1640 containing no glucose. Cell lysates were collected in 500 μL of 0.1% SDS and scintillation counts (counts/min) were measured on 400 μL of lysate. Counts were normalized to protein concentration.

Data set [8] deals with T1, PFKFB3. Briefly: Enzymatic activity of PFKFB3 in cells (F2,6BP levels, Van Schaftingen method). It counts as cell-based. Set-up: endogenous in cells; host or cells: Jurkat cells. The settings on record: Table 1; F2,6BP levels, Jurkat cells; read-out: IC50, Enzymatic activity of PFKFB3 in cells. As for the experimental part:
Inhibition of PFKFB3 can also be measured in cells by measuring fructose-2,6-biphosphate levels according to the Van Schaftingen method (Eur. J. of Biochem, 129: 191 (1982)). This method enables measurement of the inhibition in a cellular environment, a model more relevant than the pure recombinant protein. Briefly, Jurkat cells were plated at 1×10^5 cells/mL and incubated with different concentrations of PFK-158 for 3 hours. Samples were collected and cells were lysed. Extracts were characterized as described in previous reports and normalized to protein concentration.

T1 sequence (Q16875 whole entry): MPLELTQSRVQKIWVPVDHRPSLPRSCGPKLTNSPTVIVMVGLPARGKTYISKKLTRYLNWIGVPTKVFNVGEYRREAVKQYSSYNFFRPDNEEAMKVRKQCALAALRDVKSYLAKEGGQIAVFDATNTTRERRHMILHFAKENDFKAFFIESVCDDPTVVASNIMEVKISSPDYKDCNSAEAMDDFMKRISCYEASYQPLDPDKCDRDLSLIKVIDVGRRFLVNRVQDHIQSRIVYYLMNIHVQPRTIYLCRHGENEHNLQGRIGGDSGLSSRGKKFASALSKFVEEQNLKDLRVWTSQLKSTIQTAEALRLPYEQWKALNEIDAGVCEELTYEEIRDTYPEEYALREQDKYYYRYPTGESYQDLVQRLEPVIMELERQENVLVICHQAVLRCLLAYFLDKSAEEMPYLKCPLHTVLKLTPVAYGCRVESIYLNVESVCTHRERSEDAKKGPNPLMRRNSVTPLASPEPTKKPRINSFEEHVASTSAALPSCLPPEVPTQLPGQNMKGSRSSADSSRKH

Turning to `O=C(/C=C/c1ccc2ccccc2n1)c1ccncc1` [PFK-015], the MTD in data set [1] was determined as 30 mg/kg; in data set [6] (rat, in vivo, repeat dosing schedule), 12 mg/kg. The IC50 at PFKFB3 [2] came out at 0.318 ± 0.019 µM; in data set [7] it was 0.8 ± 0.1 µM; in the data set on Jurkat cells, 1.2 ± 0.1 µM; on PFKFB3 [8], 4.7 ± 1.6 µM. The same molecule registered a clearance in data set [3] of 46 mL/min/kg. The same molecule had a half-life in data set [3] of 5 h. Further, the AUC(0-inf) in data set [3] (read-out: AUC0-inf) amounted to 1800 ng·h/mL. For the same molecule, in data set [3] (read-out: Cmax), the Cmax came to 3050 ng/mL. For the same molecule, the body weight loss entry in data set [4] is on record as “higher than 15%”. In addition, the “Percent metabolized after 1 hr” value in data set [5] was found to be 67%. Also, the “Adverse observations in toxicology study” value in data set [6] (repeat dosing, PFK-158 5 to 30 mg/kg, PFK-015 12 and 25 mg/kg) is given as “adverse observations at both dose levels”.
